Consider eight molecules from patent publication EP3178809A1, “HYBRID MOLECULE WITH STRUCTURAL AND ACTIVITY ELEMENTS OF RESVERATROL AND DIALLYL SULFIDE” (Albert-Ludwigs-Universität Freiburg, priority 2015, dated 2017).

Several values for one entry are separate records, joined by “and”; a condition that tells them apart may be missing. Identical values can stand only once.

Series [1] concerns the target T1, NOX1 (Homo sapiens, UniProt Q9Y5S8).
T1 construct: endogenous in cells
T1 sequence (Q9Y5S8 1-564): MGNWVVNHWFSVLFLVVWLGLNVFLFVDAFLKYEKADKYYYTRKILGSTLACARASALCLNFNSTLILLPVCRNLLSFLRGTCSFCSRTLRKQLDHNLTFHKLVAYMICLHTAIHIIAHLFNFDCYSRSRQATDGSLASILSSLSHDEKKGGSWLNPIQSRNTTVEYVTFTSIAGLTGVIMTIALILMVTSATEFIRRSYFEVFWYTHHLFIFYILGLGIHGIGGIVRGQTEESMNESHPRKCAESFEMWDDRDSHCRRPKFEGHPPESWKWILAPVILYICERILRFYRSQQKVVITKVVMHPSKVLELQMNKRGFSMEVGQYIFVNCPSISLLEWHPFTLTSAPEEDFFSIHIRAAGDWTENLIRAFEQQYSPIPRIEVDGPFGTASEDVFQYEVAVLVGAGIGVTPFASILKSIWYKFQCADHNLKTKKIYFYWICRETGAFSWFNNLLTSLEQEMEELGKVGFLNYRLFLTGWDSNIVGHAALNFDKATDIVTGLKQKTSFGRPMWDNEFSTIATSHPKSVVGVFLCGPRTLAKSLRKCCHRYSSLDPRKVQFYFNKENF
T1 sequence (P13498 1-195 partner): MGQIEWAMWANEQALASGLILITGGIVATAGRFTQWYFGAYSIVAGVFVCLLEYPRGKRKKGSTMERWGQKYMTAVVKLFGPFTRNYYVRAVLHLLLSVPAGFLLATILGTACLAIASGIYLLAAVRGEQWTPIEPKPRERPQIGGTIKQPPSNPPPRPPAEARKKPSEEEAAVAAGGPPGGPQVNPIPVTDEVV
As to the kind of experiment: Parallel control measurement of NOX1 activity / extracellular superoxide anion production. Type of series: cell-based. As for the experimental part: Inkubationsbedingungen wie in Figur 11. Zusätzlich wurden 5 µM AEBSF oder 100 µM AEBSF zugegeben. 5 µM AEBSF führen zu einer Hemmung um nur 20 % von NOX1, während 100 µM mehr als 90 % hemmen, wie parallel durchgeführte Kontrollmessungen ergeben haben. Die geringfügige Hemmung durch 5 µM AEBSF reicht bereits aus, den Synergieeffekt aufzuheben und die Apoptoseinduktion auf das Niveau der alleinige Gabe von DADS zu drücken. Dies zeigt, dass tatsächlich die NOX-stimulierende Wirkung von Resveratrol für den Synergieeffekt notwendig war.
(§1) Die Messung der extrazellulären Superoxidanionenkonzentration von Tumorzellen sowie die Bestrahlungstechnik mit Niedrigdosis-Gammastrahlung wird in der Arbeit Temme and Bauer, 2013 beschrieben. Die Hemmung der NOD wird bei Scheit and Bauer, 2015, beschrieben. Viele Versuchsergebnisse wurden in den Figuren dargestellt.
Um zu klären, ob der durch das Hybridmolekül gebündelte Synergieeffekt tatsächlich durch die NOX-stimulierende Wirkung des von Resveratrol abgeleiteten Anteils mitgetragen wird, wurde die Wirkung des Hybridmoleküls in Gegenwart von 5 µM AEBSF untersucht. Für diese Hemmstoffkonzentration wurde in Parallelexperimenten ermittelt, dass sie eine Hemmung der extrazellulären Superoxidanionenproduktion um ca. 20 % zur Folge hat. […]

The test system of series [2] is humane Magenkarzinomzellen MKN-45. The series is described as follows: Apoptosis induction in tumour cells (morphological criteria, duplicate assays). Type of series: cell-based, human. The note with it: for Konzentration, bei der der maximale Apoptose-auslösende Effekt erzielt wird: MKN-45, 3,5 Stunden Inkubation; for Apoptoseinduktion in Tumorzellen: MKN-45, 3 Stunden, 37 °C, 5 % CO2; for Konzentration für optimale Wirkung: induction of apoptosis in tumour cells, single agents, combinations with Resveratrol, or hybrid. As for the experimental part:
Nach 3 Stunden bei 37 ° C, 5 % CO2 wurden die Prozentsätze apoptotischer Zellen bestimmt. […] Nach 3 Stunden bei 37 ° C, 5 % CO2 wurden die Prozentsätze apoptotischer Zellen bestimmt.
Die Daten basieren allesamt auf der quantitativen Bestimmung der Apoptose mittels der klassischen morphologischen Kriterien Kernkondensation, Kernfragmentation und Membrane Blebbing nach definierten Inkubationszeiten bei 37°C.
Die Ansätze erfolgten bei einer Zelldichte von 125 000 Zellen/ml in 96-Loch-Platten mit einem Reaktionsvolumen von 100 µl. Alle Ansätze wurden als Doppelansätze geführt und pro Messpunkt wurden mindestens 200 Zellen morphologisch bewertet. Eine detaillierte Aufstellung der verwendeten Medien, Inhibitoren, Zellen ist in den Arbeiten Scheit and Bauer, 2015; Bauer und Zarkovic, 2014; Bauer et al., 2014; Bauer, 2015 beschrieben.
Um zu klären, ob das Hybridmolekül aus Struktur- und Wirkungselementen von Resveratrol und Diallyldisulfid in der Lage ist, Apoptose in Tumorzellen zu induzieren, und dabei zu prüfen, ob sich durch die Kombination der Einzelfunktionen in einem Molekül der Synergieeffekt bündeln ließ, wurden steigende Konzentrationen des Hybridmoleküls zu Magenkarzinomzellen der Linie MKN-45 gegeben. Die als Parallelansätze geführten Ansätze wurden sowohl ohne als auch in Anwesenheit von 2 mM des Singulettsauerstofffängers Histidin inkubiert, um zu prüfen, ob der durch das Hybridmolekül ausgelöste Effekt durch Singulettsauerstoff vermittelt wird. Zum Vergleich wurde das gleiche Experiment mit steigenden Konzentrationen DADS durchgeführt, ebenfalls mit und ohne Histidinzugabe. Nach 3,5 Stunden Inkubation wurde der Prozentsatz apoptotischer Zellen bestimmt.

Series [3] deals with nichtmaligne, diploide humane Fibroblasten Alpha-1. The series is described as follows: Apoptosis induction in non-malignant cells (morphological criteria). It is filed as cell-based, human. The settings on record: Alpha-1 fibroblasts, 3 Stunden, 37 °C, 5 % CO2. As for the experimental part: Figur 6: Diallyldisulfid und Dipropyldisulfid, nicht aber Diallylsulfid lösen selektiv in Tumorzellen interzelluläres Signaling und Apoptose aus. • A. 12 500 humane Magenkarzinomzellen MKN-45 oder 10 000 nichtmaligne, diploide humane Fibroblasten Alpha-1 wurden in Doppelansätzen in Serum-haltigen Medium mit den angegebenen Konzentrationen an Diallyldisulfid (DADS), Dipropyldisulfid (DPDS) oder Diallylsulfid (DAS) versetzt. Nach 3 Stunden bei 37 ° C, 5 % CO2 wurden die Prozentsätze apoptotischer Zellen bestimmt. […] Nach 3 Stunden bei 37 ° C, 5 % CO2 wurden die Prozentsätze apoptotischer Zellen bestimmt. Das Ergebnis zeigt, dass die durch DADS ausgelöste Apoptose von der Wirkung von Singulettsauerstoff, Superoxidanionen, Caspase-8, NO und HOCI abhängig ist.
Die Daten basieren allesamt auf der quantitativen Bestimmung der Apoptose mittels der klassischen morphologischen Kriterien Kernkondensation, Kernfragmentation und Membrane Blebbing nach definierten Inkubationszeiten bei 37°C. Parallel wurden diese Kriterien mithilfe der TUNEL-Reaktion gesichert, wodurch die für die Apoptose charakteristischen DNA-Strangbrüche nachgewiesen wurden, und die Abhängigkeit der Apoptoseinduktion von Caspase-3 und Caspase-9 überprüft, wodurch sichergestellt war, dass die Apoptose über den mitochondrialen Weg abläuft. […]

Series [4] concerns the target T2, protektive Katalase von Tumorzellen (Homo sapiens, UniProt P04040).
T2 construct: endogenous in cells; host or cells: MKN-45 (human gastric carcinoma cell line)
T2 sequence (P04040 2-527 limits assumed): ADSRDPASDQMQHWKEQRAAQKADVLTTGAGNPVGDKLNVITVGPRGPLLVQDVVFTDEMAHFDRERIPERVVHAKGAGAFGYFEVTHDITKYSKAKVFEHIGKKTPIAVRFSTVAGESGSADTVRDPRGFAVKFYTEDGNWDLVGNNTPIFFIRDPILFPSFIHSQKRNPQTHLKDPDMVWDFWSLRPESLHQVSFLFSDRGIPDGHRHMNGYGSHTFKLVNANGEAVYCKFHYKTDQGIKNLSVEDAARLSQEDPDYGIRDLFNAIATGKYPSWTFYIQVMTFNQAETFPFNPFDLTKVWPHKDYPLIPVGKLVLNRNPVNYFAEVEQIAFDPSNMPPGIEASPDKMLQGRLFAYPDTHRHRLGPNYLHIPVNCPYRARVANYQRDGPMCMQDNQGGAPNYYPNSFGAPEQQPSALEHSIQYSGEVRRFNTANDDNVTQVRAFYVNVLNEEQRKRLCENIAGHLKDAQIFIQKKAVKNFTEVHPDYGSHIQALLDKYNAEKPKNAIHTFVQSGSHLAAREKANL
The series is described as follows: Inactivation of protective catalase: sensitisation of MKN-45 cells to peroxynitrite-induced apoptosis. It is filed as cell-based. The note with it: 150 µM DADS for 20 min or 50 mM 3-AT, apoptosis 100 min after PON. As for the experimental part:
Figur 8: DADS führt zur Inaktivierung der protektiven Katalase von Tumorzellen • A. Humane MKN-45 Tumorzellen enthielten entweder zunächst keine Zusätze (Kontrolle), 50 mM des Katalasehemmers 3-AT oder wurden für 20 Minuten mit 150 µM DADS behandelt. Nach einem Waschschritt und der Verdünnung der Zellkonzentration auf 6000 Zellen / 100 µl Ansatz wurde Peroxynitrit (PON) in den angegebenen Konzentrationen zugegeben. Nach 100 Minuten erfolgte die Bestimmung der apoptotischen Zellen in Doppelansätzen. Wie die Kontrolle zeigt, sind die Tumorzellen vor der Apoptose-auslösenden Wirkung von Peroxynitrit geschützt.
Figur 8 A zeigt, dass die kurzzeitige Behandlung von Tumorzellen mit DADS den gleichen Effekt hat, wie die Zugabe des Katalasehemmstoffs 3-Aminotriazol (3-AT), nämlich die Zellen für die Apoptose-auslösende Wirkung von exogen zugegebenem Peroxynitrit (PON) zu aktivieren. Die Sensitivierung für die Wirkung von PON ermöglicht die selektive Testung der Inaktivierung der membranständigen Katalase von Tumorzellen (Heinzelmann and Bauer, 2010; Böhm et al., 2015). Im Gegensatz zu DADS führt DAS zu keiner Inaktivierung der Katalase (Figur 8 F). […]

Series [5] relates to NO Dioxygenase. The series is described as follows: Test for inhibition of NO dioxygenase (enhanced effect of NO donor DEA NONOate on superoxide-producing cells). Type of series: cell-based.
Excerpt: Die Messung erfordert, dass durch geeignete Maßnahmen, wie bei Scheit und Bauer, 2015 beschrieben, die Tumorzellkatalase maximal inhibiert, die Hemmwirkung von H2O2 auf ·NO und Peroxynitrit durch Anwesenheit eines Katalasemimetikums verhindert und de novo Synthese von ·NO durch die Anwesenheit des NOS Inhibitors L-NAME verhindert wird.
as §1

For the molecule `NCCc1ccc(S(=O)(=O)F)cc1` [AEBSF, 4-(2-Aminoethyl)benzenesulfonyl fluoride], in series [1] (5 µM), the “Hemmung von NOX1 / der extrazellulären Superoxidanionenproduktion” value stood at 20%. In addition, in series [1] (100 µM), the “Hemmung von NOX1 / der Superoxidanionensynthese” value is > 95% and > 90%.
As for `C=CCSSCC=C` [DADS, Diallyldisulfid], in series [2] (Homo sapiens, MKN-45, 3.5 h, read-out: Konzentration für den gleichen Effekt (ca. 40 Prozent des Maximalwertes der Apoptoseinduktion)), the EC40 came to 1.1 µM. In series [2] (alleinige Gabe), the “Konzentration, bei der der maximale Apoptose-auslösende Effekt erzielt wird” value is 10 µM. For the same molecule, in series [2], the “Apoptoseinduktion in Tumorzellen” value is listed as “konzentrationsabhängig zur Apoptose”. Further, in series [3], the “Apoptoseinduktion in normalen Zellen” value is reported as “nicht aber bei den normalen Zellen”. In series [4], the “Wirkung auf die protektive Katalase (sensitisation to peroxynitrite)” value was “gleichen Effekt wie der Katalasehemmstoff”. Besides, the “Hemmung der NO Dioxygenase” value in series [5] is “Hemmung dieses Enzyms”.
As for `C=CCSCC=C` [DAS, Diallylsulfid], the “Apoptoseinduktion in Tumorzellen” value in series [2] is “keine Aktivität”. Besides, the “Wirkung auf die protektive Katalase (sensitisation to peroxynitrite)” value in series [4] is given as “keine Wirkung auf die protektive Katalase”.
`CCCSSCCC` [DPDS, Dipropyldisulfid]: in series [2], the “Apoptoseinduktion in Tumorzellen” value is listed as “konzentrationsabhängig zur Apoptose”. The “Apoptoseinduktion in normalen Zellen” value in series [3] is reported as “nicht aber bei den normalen Zellen”.
For `C=CCSSCCCOc1cc(/C=C/c2ccc(O)cc2)cc(OCCCSSCC=C)c1` [Hybridmolekül], the “Prozent des Maximalwertes der Apoptoseinduktion” value in series [2] (1 nM, MKN-45, 3,5 Stunden) is on record as “ca. 40 Prozent”. Further, in series [2], the “Konzentration, bei der der maximale Apoptose-auslösende Effekt erzielt wird” value was determined as 0.01 µM and the “Konzentration für optimale Wirkung” value was 3 to 30 nM. For the same molecule, in series [2] (plus 0,9 µM Resveratrol, 0.3 µM DADS or 2,5 µM NOR-NOHA, MKN-45, 3,5 Stunden), the “Steigerung der Wirkung durch Zugabe von Einzelkomponenten” value is “nicht steigern”. The “wirksamer als Diallyldisulfid” value in series [2] (shift of concentration-effect curves, apoptosis in MKN-45) is on record as ~1000 -fach.
On to `O=c1c(O)c(-c2ccc(O)c(O)c2)oc2cc(O)cc(O)c12` [Quercitin], for which, in series [5], the “Hemmung der NO Dioxygenase” value is given as “Hemmung dieses Enzyms”.
With `CC(=O)O[C@H]1C(=O)[C@@]2(C)[C@H]([C@H](OC(=O)c3ccccc3)[C@]3(O)C[C@H](OC(=O)[C@H](O)[C@@H](NC(=O)c4ccccc4)c4ccccc4)C(C)=C1C3(C)C)[C@]1(OC(C)=O)CO[C@@H]1C[C@@H]2O` [Taxol], the “wirksamer in Bezug auf Induktion der Apoptose in Tumorzellen als Diallyldisulfid” value in series [2] (from Tabelle 2) is ≥ 10 -fach. Besides, the “Konzentration für optimale Wirkung” value in series [2] lay within 900 to 3800 nM. Besides, the “Hemmung der NO Dioxygenase” value in series [5] was “Hemmung dieses Enzyms”.
In the case of Epothilon B, the “Hemmung der NO Dioxygenase” value in series [5] was “Hemmung dieses Enzyms”.
